Measurements published in ChEMBL document CHEMBL3991601, “The target landscape of clinical kinase drugs” (Science, 2017).
Active and inactive are the calls of the source. For most assays here, no stated cut-off is given here; in the data, actives have a measured Kd and inactives only a lower limit.

Key:
LIM domain kinase 1 = LIM domain kinase 1 (Homo sapiens, UniProt P53667)
[1] = molecular target: AP2-associated protein kinase 1 (Homo sapiens, UniProt Q2M2I8)
[2] = molecular target: Serine/threonine-protein kinase SIK3 (Homo sapiens, UniProt Q9Y2K2)
Ephrin type-B receptor 3 = molecular target: T1, Ephrin type-B receptor 3 (Homo sapiens, UniProt P54753)
T1 sequence (P54753 whole entry): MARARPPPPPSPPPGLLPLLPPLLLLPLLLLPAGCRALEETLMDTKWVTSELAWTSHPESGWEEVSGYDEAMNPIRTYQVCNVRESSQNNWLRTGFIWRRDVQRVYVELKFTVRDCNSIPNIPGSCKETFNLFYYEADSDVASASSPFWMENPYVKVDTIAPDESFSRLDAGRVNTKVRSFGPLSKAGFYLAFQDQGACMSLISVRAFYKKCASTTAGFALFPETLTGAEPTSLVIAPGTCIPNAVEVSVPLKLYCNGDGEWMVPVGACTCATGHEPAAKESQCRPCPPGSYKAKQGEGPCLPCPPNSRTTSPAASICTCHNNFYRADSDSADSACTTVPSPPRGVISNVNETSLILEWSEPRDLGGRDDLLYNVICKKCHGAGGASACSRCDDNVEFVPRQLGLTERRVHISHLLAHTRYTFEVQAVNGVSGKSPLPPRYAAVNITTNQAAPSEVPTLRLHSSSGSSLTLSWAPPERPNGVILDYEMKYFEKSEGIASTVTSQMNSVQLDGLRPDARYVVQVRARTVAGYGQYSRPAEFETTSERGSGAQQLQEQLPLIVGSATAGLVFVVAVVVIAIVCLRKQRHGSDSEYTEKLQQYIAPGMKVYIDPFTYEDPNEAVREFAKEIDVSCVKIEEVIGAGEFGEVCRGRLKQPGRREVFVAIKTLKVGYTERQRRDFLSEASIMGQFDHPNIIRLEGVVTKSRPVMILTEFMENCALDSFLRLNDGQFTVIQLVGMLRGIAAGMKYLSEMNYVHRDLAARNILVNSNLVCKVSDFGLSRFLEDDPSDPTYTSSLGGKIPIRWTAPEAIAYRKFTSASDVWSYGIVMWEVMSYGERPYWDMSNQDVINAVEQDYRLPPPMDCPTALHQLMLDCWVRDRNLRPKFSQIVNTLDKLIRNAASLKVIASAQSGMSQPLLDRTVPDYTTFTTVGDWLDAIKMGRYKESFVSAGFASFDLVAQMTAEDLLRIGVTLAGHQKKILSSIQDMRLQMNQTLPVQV

[3] = molecular target: Platelet-derived growth factor receptor beta (Homo sapiens, UniProt P09619)
[4] = molecular target: Myosin light chain kinase, smooth muscle (Homo sapiens, UniProt Q15746)
[5] = molecular target: Protein kinase C beta type (Homo sapiens, UniProt P05771)
[6] = molecular target: T2, Serine/threonine-protein kinase D3 (Homo sapiens, UniProt O94806)
T2 sequence (O94806 whole entry): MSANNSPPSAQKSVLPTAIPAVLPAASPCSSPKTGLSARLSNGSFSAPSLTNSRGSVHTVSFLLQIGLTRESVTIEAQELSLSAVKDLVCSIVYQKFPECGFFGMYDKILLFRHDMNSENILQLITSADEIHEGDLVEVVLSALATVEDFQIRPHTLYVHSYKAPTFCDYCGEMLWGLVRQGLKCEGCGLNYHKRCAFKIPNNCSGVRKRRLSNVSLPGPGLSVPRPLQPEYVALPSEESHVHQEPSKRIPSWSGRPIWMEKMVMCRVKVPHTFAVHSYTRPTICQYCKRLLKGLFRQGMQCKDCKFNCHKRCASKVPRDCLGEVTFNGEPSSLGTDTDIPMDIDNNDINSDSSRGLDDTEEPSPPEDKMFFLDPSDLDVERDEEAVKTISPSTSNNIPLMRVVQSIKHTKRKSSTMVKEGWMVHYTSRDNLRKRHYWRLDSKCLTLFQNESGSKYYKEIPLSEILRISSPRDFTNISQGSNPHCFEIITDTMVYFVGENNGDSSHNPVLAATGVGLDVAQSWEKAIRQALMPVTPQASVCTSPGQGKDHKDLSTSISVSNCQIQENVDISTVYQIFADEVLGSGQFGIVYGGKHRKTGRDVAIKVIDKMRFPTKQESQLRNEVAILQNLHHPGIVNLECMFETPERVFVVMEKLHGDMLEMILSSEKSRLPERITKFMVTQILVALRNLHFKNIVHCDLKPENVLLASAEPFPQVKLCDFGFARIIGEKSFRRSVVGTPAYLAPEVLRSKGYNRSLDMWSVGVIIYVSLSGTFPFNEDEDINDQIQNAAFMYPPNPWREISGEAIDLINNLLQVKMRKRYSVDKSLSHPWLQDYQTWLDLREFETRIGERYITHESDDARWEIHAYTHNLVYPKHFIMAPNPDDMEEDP

[7] = molecular target: Mitogen-activated protein kinase kinase kinase 1 (Homo sapiens, UniProt Q13233)
[8] = molecular target: Tyrosine-protein kinase Fer (Homo sapiens, UniProt P16591)
[9] = molecular target: Serine/threonine-protein kinase N1 (Homo sapiens, UniProt Q16512)
[10] = molecular target: T3, Probable ATP-dependent RNA helicase DDX6 (Homo sapiens, UniProt P26196)
T3 sequence (P26196 whole entry): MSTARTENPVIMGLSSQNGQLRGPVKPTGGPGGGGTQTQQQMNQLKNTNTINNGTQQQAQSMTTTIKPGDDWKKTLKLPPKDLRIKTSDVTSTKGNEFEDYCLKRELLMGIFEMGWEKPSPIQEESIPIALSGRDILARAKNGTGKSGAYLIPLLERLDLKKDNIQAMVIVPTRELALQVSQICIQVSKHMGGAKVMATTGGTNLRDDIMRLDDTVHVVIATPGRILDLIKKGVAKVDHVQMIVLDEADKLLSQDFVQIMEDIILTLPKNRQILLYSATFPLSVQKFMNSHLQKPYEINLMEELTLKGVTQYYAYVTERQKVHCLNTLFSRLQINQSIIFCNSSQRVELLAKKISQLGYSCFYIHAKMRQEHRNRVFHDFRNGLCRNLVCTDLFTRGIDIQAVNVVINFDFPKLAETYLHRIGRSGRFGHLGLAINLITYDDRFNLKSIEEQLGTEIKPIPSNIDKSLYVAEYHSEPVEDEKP

[11] = molecular target: Ribosomal protein S6 kinase alpha-3 (Homo sapiens, UniProt P51812)
[12] = molecular target: Serine/threonine-protein kinase N2 (Homo sapiens, UniProt Q16513)

Chain of LIM domain kinase 1 (P53667 whole entry, the tested form may be a part): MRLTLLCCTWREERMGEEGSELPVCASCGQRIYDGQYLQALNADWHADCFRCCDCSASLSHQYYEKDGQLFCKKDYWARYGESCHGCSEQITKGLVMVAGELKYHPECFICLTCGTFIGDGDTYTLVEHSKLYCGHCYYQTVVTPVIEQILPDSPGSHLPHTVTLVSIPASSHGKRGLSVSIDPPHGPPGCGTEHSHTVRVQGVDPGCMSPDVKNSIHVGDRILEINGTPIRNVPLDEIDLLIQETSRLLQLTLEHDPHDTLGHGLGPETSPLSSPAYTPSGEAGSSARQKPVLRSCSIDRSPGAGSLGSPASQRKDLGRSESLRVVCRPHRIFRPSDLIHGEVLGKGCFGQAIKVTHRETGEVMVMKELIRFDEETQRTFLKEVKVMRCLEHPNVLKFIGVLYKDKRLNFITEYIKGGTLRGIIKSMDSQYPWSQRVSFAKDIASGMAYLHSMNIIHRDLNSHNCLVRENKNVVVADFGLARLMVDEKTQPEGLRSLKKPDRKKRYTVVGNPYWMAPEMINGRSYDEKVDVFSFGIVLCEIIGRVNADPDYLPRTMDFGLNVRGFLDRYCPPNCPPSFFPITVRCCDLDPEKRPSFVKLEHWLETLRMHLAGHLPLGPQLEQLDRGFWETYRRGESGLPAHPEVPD
Chain of Ribosomal protein S6 kinase alpha-3 (P51812 whole entry): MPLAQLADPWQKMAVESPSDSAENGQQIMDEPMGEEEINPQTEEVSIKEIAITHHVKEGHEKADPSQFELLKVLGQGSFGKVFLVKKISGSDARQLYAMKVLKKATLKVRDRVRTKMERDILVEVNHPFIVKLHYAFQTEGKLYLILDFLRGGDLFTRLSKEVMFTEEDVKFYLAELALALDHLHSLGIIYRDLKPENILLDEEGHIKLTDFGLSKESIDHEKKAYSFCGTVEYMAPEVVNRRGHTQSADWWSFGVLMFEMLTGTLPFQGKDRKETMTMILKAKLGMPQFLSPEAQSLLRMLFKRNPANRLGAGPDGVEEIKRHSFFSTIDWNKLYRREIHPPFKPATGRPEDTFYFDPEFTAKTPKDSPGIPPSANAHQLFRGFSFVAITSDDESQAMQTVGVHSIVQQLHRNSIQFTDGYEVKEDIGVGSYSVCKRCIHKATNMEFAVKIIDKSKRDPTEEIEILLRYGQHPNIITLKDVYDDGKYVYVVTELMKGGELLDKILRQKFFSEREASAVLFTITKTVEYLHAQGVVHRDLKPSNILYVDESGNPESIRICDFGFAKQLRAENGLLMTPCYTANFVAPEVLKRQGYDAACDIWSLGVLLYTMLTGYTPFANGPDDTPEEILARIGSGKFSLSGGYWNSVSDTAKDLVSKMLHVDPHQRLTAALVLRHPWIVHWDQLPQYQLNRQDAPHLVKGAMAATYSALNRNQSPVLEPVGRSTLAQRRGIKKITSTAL
Chain of Tyrosine-protein kinase Fer (P16591 whole entry): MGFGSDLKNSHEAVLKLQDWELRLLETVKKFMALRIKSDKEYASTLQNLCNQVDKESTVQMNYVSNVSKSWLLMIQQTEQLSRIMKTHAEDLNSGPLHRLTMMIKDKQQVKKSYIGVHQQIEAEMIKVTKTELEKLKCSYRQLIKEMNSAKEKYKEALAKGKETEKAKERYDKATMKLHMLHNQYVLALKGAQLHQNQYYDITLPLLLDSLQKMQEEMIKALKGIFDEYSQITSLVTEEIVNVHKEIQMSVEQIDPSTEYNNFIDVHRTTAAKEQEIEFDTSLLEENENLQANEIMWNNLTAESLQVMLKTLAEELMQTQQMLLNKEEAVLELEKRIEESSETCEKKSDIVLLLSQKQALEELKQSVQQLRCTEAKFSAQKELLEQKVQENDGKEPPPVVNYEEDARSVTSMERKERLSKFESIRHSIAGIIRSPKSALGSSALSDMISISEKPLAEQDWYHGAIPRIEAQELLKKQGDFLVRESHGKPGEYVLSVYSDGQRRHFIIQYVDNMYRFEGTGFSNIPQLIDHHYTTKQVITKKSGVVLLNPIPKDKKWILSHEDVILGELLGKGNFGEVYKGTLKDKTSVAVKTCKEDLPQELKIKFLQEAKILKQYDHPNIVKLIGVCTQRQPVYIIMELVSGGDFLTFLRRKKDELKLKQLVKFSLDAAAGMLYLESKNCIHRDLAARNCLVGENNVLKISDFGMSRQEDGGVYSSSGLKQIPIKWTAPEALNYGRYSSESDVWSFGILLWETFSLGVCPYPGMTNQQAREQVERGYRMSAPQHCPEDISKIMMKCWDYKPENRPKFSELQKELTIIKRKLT
Chain of AP2-associated protein kinase 1 (Q2M2I8 whole entry): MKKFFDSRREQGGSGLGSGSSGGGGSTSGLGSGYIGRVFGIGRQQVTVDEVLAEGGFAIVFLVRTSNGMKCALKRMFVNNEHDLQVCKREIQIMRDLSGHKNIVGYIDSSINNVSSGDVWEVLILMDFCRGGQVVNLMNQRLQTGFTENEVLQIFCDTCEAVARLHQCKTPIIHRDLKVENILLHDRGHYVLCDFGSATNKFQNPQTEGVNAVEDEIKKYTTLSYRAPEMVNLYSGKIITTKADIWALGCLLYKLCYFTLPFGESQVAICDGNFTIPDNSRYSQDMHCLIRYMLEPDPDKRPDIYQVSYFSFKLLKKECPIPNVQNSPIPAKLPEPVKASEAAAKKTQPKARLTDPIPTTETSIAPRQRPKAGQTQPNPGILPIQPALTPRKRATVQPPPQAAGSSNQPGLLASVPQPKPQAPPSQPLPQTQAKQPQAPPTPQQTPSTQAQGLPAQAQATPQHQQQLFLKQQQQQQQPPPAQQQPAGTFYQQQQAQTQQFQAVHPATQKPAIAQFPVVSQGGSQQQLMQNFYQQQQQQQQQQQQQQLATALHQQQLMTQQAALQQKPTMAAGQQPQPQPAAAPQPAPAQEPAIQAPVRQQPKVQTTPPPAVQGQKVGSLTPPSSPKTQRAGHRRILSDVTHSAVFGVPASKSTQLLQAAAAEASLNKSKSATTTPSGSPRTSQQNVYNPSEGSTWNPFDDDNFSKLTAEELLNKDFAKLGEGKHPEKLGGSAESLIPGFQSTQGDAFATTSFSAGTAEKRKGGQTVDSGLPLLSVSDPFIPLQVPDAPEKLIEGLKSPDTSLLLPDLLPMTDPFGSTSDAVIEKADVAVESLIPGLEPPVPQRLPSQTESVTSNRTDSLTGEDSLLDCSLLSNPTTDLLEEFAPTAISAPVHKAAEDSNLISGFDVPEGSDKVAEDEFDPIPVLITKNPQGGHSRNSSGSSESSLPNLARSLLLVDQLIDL
Chain of Serine/threonine-protein kinase SIK3 (Q9Y2K2 whole entry): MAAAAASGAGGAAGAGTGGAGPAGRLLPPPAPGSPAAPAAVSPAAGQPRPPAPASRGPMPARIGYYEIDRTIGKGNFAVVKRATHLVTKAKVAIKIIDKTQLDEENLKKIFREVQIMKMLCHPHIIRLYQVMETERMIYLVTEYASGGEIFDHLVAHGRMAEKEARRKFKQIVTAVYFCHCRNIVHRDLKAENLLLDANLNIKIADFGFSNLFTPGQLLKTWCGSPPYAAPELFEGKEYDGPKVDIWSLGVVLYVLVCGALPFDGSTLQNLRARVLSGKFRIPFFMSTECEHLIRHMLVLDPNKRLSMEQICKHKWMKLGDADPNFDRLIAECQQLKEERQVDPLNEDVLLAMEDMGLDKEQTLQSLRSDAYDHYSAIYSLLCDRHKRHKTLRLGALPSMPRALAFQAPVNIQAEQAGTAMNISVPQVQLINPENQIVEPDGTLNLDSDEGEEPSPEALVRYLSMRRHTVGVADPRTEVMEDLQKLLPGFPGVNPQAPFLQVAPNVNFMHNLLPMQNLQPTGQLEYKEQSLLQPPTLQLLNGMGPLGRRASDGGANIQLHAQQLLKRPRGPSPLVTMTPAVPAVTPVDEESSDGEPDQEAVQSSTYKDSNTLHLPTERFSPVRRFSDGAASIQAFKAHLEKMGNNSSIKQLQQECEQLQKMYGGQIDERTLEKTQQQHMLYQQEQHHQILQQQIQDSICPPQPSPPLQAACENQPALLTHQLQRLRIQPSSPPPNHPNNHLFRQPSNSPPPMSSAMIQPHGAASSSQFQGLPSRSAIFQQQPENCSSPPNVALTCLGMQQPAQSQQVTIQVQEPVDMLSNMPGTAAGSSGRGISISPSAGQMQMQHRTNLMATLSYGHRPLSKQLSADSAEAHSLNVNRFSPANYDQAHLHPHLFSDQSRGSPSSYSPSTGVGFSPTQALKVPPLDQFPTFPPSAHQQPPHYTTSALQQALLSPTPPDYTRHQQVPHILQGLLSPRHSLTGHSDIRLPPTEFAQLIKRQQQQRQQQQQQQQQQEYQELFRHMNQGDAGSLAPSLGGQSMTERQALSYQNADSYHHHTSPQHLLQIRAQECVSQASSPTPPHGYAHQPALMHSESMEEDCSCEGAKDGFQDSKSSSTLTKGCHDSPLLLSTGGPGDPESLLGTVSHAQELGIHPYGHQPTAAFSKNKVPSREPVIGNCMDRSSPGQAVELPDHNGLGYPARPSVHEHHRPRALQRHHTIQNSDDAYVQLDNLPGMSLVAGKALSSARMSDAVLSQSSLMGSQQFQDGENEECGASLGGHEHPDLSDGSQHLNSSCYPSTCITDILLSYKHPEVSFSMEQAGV

Cc1c(Cn2c(C)nc3c(C(=O)O)cc(N4CCOCC4)cc32)cccc1C(F)(F)F [GSK-2636771]
Kd (LIM domain kinase 1): > 30 µM (inactive) | Kd [1]: > 30 µM (inactive) | Kd [2]: > 30 µM (inactive) | Kd (Ephrin type-B receptor 3): > 30 µM (inactive) | Kd [3]: > 30 µM (inactive) | Kd [4]: > 30 µM (inactive) | Kd [5]: > 30 µM (inactive) | Kd [6]: > 30 µM (inactive) | Kd [7]: > 30 µM (inactive) | Kd [8]: > 30 µM (inactive) | Kd [9]: > 30 µM (inactive) | Kd [10]: > 30 µM (inactive) | Kd [11]: > 30 µM (inactive) | Kd [12]: > 30 µM (inactive)

NC(=O)c1ccc(N(C(N)=O)c2c(F)cccc2F)nc1-c1ccc(F)cc1F [VX-702]
Kd (LIM domain kinase 1): > 30 µM (inactive) | Kd [1]: > 30 µM (inactive) | Kd [2]: > 30 µM (inactive) | Kd (Ephrin type-B receptor 3): > 30 µM (inactive) | Kd [3]: > 30 µM (inactive) | Kd [4]: 0.003 µM | Kd [5]: > 30 µM (inactive) | Kd [6]: > 30 µM (inactive) | Kd [7]: > 30 µM (inactive) | Kd [8]: > 30 µM (inactive) | Kd [9]: > 30 µM (inactive) | Kd [10]: > 30 µM (inactive) | Kd [11]: > 30 µM (inactive) | Kd [12]: > 30 µM (inactive)

COCCN1CCN(Cc2ccc(-c3n[nH]c4c3C(=O)c3c(NC(=O)NN5CCOCC5)cccc3-4)cc2)CC1 [RGB-286638]
Kd (LIM domain kinase 1): > 30 µM (inactive) | Kd [1]: 0.022 µM (active) | Kd [2]: > 30 µM (inactive) | Kd (Ephrin type-B receptor 3): > 30 µM (inactive) | Kd [3]: 1.36 µM | Kd [4]: > 30 µM (inactive) | Kd [5]: > 30 µM (inactive) | Kd [6]: 0.297 µM (active) | Kd [7]: > 30 µM (inactive) | Kd [8]: > 30 µM (inactive) | Kd [9]: > 30 µM (inactive) | Kd [10]: > 30 µM (inactive) | Kd [11]: > 30 µM (inactive) | Kd [12]: > 30 µM (inactive)

C=CC(=O)Nc1cccc(Nc2nc(Nc3ccc(N4CCN(C(C)=O)CC4)cc3OC)ncc2C(F)(F)F)c1 [ROCILETINIB]
Kd (LIM domain kinase 1): > 30 µM (inactive) | Kd [1]: > 30 µM (inactive) | Kd [2]: > 30 µM (inactive) | Kd (Ephrin type-B receptor 3): > 30 µM (inactive) | Kd [3]: > 30 µM (inactive) | Kd [4]: > 30 µM (inactive) | Kd [5]: > 30 µM (inactive) | Kd [6]: > 30 µM (inactive) | Kd [7]: > 30 µM (inactive) | Kd [8]: 1.11 µM (active) | Kd [9]: > 30 µM (inactive) | Kd [10]: > 30 µM (inactive) | Kd [11]: > 30 µM (inactive) | Kd [12]: > 30 µM (inactive)

O=C(NOC[C@H](O)CO)c1ccc(F)c(F)c1Nc1ccc(I)cc1F [MIRDAMETINIB]
Kd (LIM domain kinase 1): > 30 µM (inactive) | Kd [1]: > 30 µM (inactive) | Kd [2]: > 30 µM (inactive) | Kd (Ephrin type-B receptor 3): > 30 µM (inactive) | Kd [3]: > 30 µM (inactive) | Kd [4]: > 30 µM (inactive) | Kd [5]: > 30 µM (inactive) | Kd [6]: > 30 µM (inactive) | Kd [7]: > 30 µM (inactive) | Kd [8]: > 30 µM (inactive) | Kd [9]: > 30 µM (inactive) | Kd [10]: > 30 µM (inactive) | Kd [11]: > 30 µM (inactive) | Kd [12]: > 30 µM (inactive)
